In US9994546B2, “Cyclopropylamines as LSD1 inhibitors” (Incyte Corporation, priority 2014, dated 2018):

What follows are molecules tested against LSD-1 enzyme (Homo sapiens (Human), UniProt O60341) (assay: LANCE LSD1/KDM1A demethylase assay (LSD1 histone demethylase biochemical assay)). Conditions: 1 nM LSD-1 enzyme, 1 hour preincubation at 25° C., 0.4 μM biotin-labeled Histone H3 peptide substrate.
Protocol: LANCE LSD1/KDM1A demethylase assay—10 μL of 1 nM LSD-1 enzyme (ENZO BML-SE544-0050) in the assay buffer (50 mM Tris, pH 7.5, 0.01% Tween-20, 25 mM NaCl, 5 mM DTT) were preincubated for 1 hour at 25° C. with 0.8 μL compound/DMSO dotted in black 384 well polystyrene plates. […] After stopping the reactions plates were incubated for 30 minutes and read on a PHERAstar FS plate reader (BMG Labtech).

Q: For N#CCC1(N2CCC(NC3CC3c3ccccc3)CC2)CCC1 (racemic) [Example 1, (1-{4-[(trans-2-Phenylcyclopropyl)amino]piperidin-1-yl}cyclobutyl)acetonitrile], which IC50 is on record?
A: ≤ 100 nM

Q: How did the IC50 turn out when CN1CC(CC#N)(N2CCC(N[C@@H]3C[C@H]3c3ccccc3)CC2)C1 (relative stereo) [Example 2, (1-Methyl-3-{4-[(trans-2-phenylcyclopropyl)amino]piperidin-1-yl}azetidin-3-yl)acetonitrile] was run?
A: ≤ 100 nM

Q: How did the IC50 turn out when N#CCC1(N2CCC(N[C@@H]3C[C@H]3c3ccccc3)CC2)CNC1 (relative stereo) [Example 3, (3-{4-[(trans-2-Phenylcyclopropyl)amino]piperidin-1-yl}azetidin-3-yl)acetonitrile] was run?
A: ≤ 100 nM

Q: For N#CCC1(N2CCC(N[C@@H]3C[C@H]3c3ccccc3)CC2)CN(Cc2ccccc2)C1 (relative stereo) [Example 4, (1-Benzyl-3-{4-[(trans-2-phenylcyclopropyl)amino]piperidin-1-yl}azetidin-3-yl)acetonitrile], which IC50 is on record?
A: ≤ 100 nM

Q: For N#CCC1(N2CCC(N[C@@H]3C[C@H]3c3ccccc3)CC2)CN(CCC(=O)O)C1 (relative stereo) [Example 5, 3-(3-(Cyanomethyl)-3-{4-[(trans-2-phenylcyclopropyl)amino]piperidin-1-yl}azetidin-1-yl)propanoic acid], which IC50 is on record?
A: ≤ 100 nM

Q: With CC(=O)N1CC(CC#N)(N2CCC(N[C@@H]3C[C@H]3c3ccccc3)CC2)C1 (relative stereo) [Example 6, (1-Acetyl-3-{4-[(trans-2-phenylcyclopropyl)amino]piperidin-1-yl}azetidin-3-yl)acetonitrile] as the molecule, how does the IC50 read?
A: ≤ 100 nM

Q: With N#CCC1(N2CCC(N[C@@H]3C[C@H]3c3ccccc3)CC2)CN(C(=O)c2ccccc2)C1 (relative stereo) [Example 7, (1-Benzoyl-3-{4-[(trans-2-phenylcyclopropyl)amino]piperidin-1-yl}azetidin-3-yl)acetonitrile] as the molecule, how does the IC50 read?
A: ≤ 100 nM

Q: For COC(=O)N1CC(CC#N)(N2CCC(N[C@@H]3C[C@H]3c3ccccc3)CC2)C1 (relative stereo) [Example 8, Methyl 3-(cyanomethyl)-3-{4-[(trans-2-phenylcyclopropyl)amino]piperidin-1-yl}azetidine-1-carboxylate], which IC50 is on record?
A: ≤ 100 nM

Q: How did the IC50 turn out when CS(=O)(=O)N1CC(CC#N)(N2CCC(N[C@@H]3C[C@H]3c3ccccc3)CC2)C1 (relative stereo) [Example 9, (1-(Methylsulfonyl)-3-{4-[(trans-2-phenylcyclopropyl)amino]piperidin-1-yl}azetidin-3-yl)acetonitrile] was run?
A: ≤ 100 nM

Q: For N#CCC1(N2CCC(N[C@@H]3C[C@H]3c3ccccc3)CC2)CN(c2ncccc2C#N)C1 (relative stereo) [Example 10, 2-(3-(Cyanomethyl)-3-{4-[(trans-2-phenylcyclopropyl)amino]piperidin-1-yl}azetidin-1-yl)nicotinonitrile], which IC50 is on record?
A: ≤ 100 nM

Q: For N#CCC1(N2CCC(N[C@@H]3C[C@H]3c3ccccc3)CC2)CN(c2ccc(C(=O)O)cc2C#N)C1 (relative stereo) [Example 11, 3-Cyano-4-(3-(cyanomethyl)-3-{4-[(trans-2-phenylcyclopropyl)amino]piperidin-1-yl}azetidin-1-yl)benzoic acid], which IC50 is on record?
A: 100 to 500 nM

Q: With N#CCC1(N2CCC(N[C@@H]3C[C@H]3c3ccccc3)CC2)CN(c2ccccc2C#N)C1 (relative stereo) [Example 12, 2-(3-(Cyanomethyl)-3-{4-[(trans-2-phenylcyclopropyl)amino]piperidin-1-yl}azetidin-1-yl)benzonitrile] as the molecule, how does the IC50 read?
A: ≤ 100 nM

Q: With N#CCC1(N2CCC(N[C@@H]3C[C@H]3c3ccccc3)CC2)CN(c2ccc(C#N)cc2)C1 (relative stereo) [Example 13, 4-(3-(Cyanomethyl)-3-{4-[(trans-2-phenylcyclopropyl)amino]piperidin-1-yl}azetidin-1-yl)benzonitrile] as the molecule, how does the IC50 read?
A: ≤ 100 nM

Q: How did the IC50 turn out when N#CCC1(N2CC(CN[C@@H]3C[C@H]3c3ccccc3)C2)CCC1 (relative stereo) [Example 14, [1-(3-{[(trans-2-Phenylcyclopropyl)amino]methyl}azetidin-1-yl)cyclobutyl]acetonitrile] was run?
A: ≤ 100 nM
